Laboratory results taken from a melting point compilation (Tetko et al.; mined from patent text by program, amines drawn as free bases though some values may be those of a salt).

Question: With `C#CCOc1ccc(C(=O)O)c(C2=NC(=O)C(C)(C(C)C)N2)n1` (stereo not given) as the molecule, how does the melting point read?
Answer: 195 to 198 °C

Question: Which melting point does the source give for `C=C(C)C1CCC2C3CC(=O)C4=CC(=O)CCC4(C)C3CCC12C` (stereo not given) here?
Answer: 148 to 150 °C

Question: For `C[C@H]1C[C@@](O)(c2cccc(S(=O)(=O)c3cc4c(cc3F)N(C)C(=O)CC4)c2)CCO1`, which melting point is on record?
Answer: 135 to 138 °C

Question: Which melting point does the source give for `Cc1ccnc2c1N=C(Cl)c1cccnc1N2C1CC1` here?
Answer: 196 to 198 °C

Question: Which melting point does the source give for `Cn1cc(C2=C(c3ccncc3)C(=O)NC2=O)c2ccccc21` here?
Answer: 332 to 334 °C

Question: Which melting point does the source give for `Cc1ccc(C(SCCN(C)CCCCN=C(NC#N)NCCSCc2csc(NC(=N)N)n2)c2ccccc2)cc1` (stereo not given) here?
Answer: 134 to 140 °C

Question: For `O=C(O)c1cccc(-c2cccc3sc(Cc4cccc(C(F)(F)F)c4)nc23)c1`, which melting point is on record?
Answer: 152 to 153 °C

Question: Which melting point does the source give for `CC1CC(NC(=O)c2ccccc2SC#N)CC(C)(C)C1` (stereo not given) here?
Answer: 117 °C

Question: Which melting point does the source give for `COC(=O)c1ccc(Oc2ccc3c(c2)CCN(C2CCN(C4CCC4)CC2)C3=O)cc1` here?
Answer: 269 to 270 °C

Question: For `Oc1cccc2c(Cl)ccnc12`, which melting point is on record?
Answer: 143 to 145 °C

Question: With `COCCCOc1ccc(/C=C/C(=O)O)c(Oc2ncc(C(F)(F)F)cc2Cl)c1` as the molecule, how does the melting point read?
Answer: 131 to 133 °C

Question: Which melting point does the source give for `CN1C(=O)[C@H](NC(=O)COc2ccc(Cl)cc2Cl)N=C(c2ccccc2)c2ccccc21` here?
Answer: 206 °C

Question: Which melting point does the source give for `CCn1c(Cl)c(C=O)c(=O)n(CC)c1=O` here?
Answer: 88 to 89 °C

Question: For `Nc1cc2c(cc1Sc1ccccc1)CCC2`, which melting point is on record?
Answer: 67 °C

Question: Which melting point does the source give for `CC(C)(C)c1cc(C(C)(C)C)n(Cc2ccc(CNc3ccc(CCC(=O)O)c(F)c3)cc2)n1` here?
Answer: 146 to 147 °C

Question: With `CCCCCCCCOc1ccc(-c2ccc(-c3ccc4c(c3)C(CC)(CC)c3cc(-c5ccc(-c6ccc(OCCCCCCCC)cc6)cc5)ccc3-4)cc2)cc1` as the molecule, how does the melting point read?
Answer: 146 °C

Question: With `Cc1ncn(Nc2cccc(Cl)c2)c1-c1cccc(Cl)c1` as the molecule, how does the melting point read?
Answer: 168 °C

Question: With `COc1ccccc1C1(CC(=O)N2CCN(c3ccncc3)CC2)C(=O)Nc2ccc(Cl)cc21` (stereo not given) as the molecule, how does the melting point read?
Answer: 111 °C

Question: For `COCCN1CSC(=Cc2cc(C(C)(C)C)c(O)c(C(C)(C)C)c2)C1=O`, which melting point is on record?
Answer: 147 to 149 °C

Question: With `COC(=O)NCc1cc(C(C)=NO)ccc1Cl` as the molecule, how does the melting point read?
Answer: 124 to 127 °C

Question: Which melting point does the source give for `CCCCCCCCOc1ccc(-c2ncc(Br)cn2)cc1` here?
Answer: 95 °C

Question: With `O=C1CCC(N2Cc3c(CNC(=O)NCc4ccccc4)cccc3C2=O)C(=O)N1` (stereo not given) as the molecule, how does the melting point read?
Answer: 304 to 306 °C

Question: Which melting point does the source give for `N#Cc1cccc(C2=Nc3cc(O)c(-c4cc(F)ccc4F)cc3NC(=O)C2)c1` here?
Answer: > 250 °C

Question: For `Cc1ccc2nc([C@@H](C)NC(=O)OC(C)(C)C)sc2c1`, which melting point is on record?
Answer: 101 to 104 °C

Question: With `CCOC(=O)NC(=O)C(C#N)=CNc1c(C)cccc1C` as the molecule, how does the melting point read?
Answer: 138 to 140 °C

Question: With `NCc1ccn(C2=CC3=C(CC2)CCc2[nH]c(=O)c(=O)n(OCC(=O)O)c23)c1` as the molecule, how does the melting point read?
Answer: > 300 °C

Question: For `COc1cc(C(O)CN(c2nc3ccccc3[nH]2)C(C)CCn2cnc3ccccc32)ccc1OCc1ccccc1` (stereo not given), which melting point is on record?
Answer: 170 to 180 °C

Question: With `O=C1CCC(Nc2nccc(-n3nnc4ccccc43)n2)CC1` as the molecule, how does the melting point read?
Answer: 205 to 206 °C

Question: For `CCCCCCCCC1C(=O)NC(=O)N1CCCCCCC(=O)OCC` (stereo not given), which melting point is on record?
Answer: 68 to 70 °C

Question: With `CC(=O)c1ccc(N2CCN(CCC3CN(C)C(=O)O3)CC2)cc1` (stereo not given) as the molecule, how does the melting point read?
Answer: 142 to 145 °C

Question: For `CCCCC(Cn1cncn1)(NC(C)=O)c1ccc(Cl)cc1` (stereo not given), which melting point is on record?
Answer: 178 to 179 °C

Question: For `CC(C)(C)OC(=O)C(CSCc1ccc(-c2ccc(-c3cccc4c3oc3ccccc34)cc2)cc1)C(=O)O` (stereo not given), which melting point is on record?
Answer: 205 to 206 °C

Question: Which melting point does the source give for `O=C(CBr)c1ccc(O)cc1` here?
Answer: 115 to 118 °C

Question: With `COc1ccc(C(=O)Cc2c(Cl)cncc2Cl)c2c1OCCCO2` as the molecule, how does the melting point read?
Answer: 150 to 151 °C

Question: Which melting point does the source give for `CC(C)c1cc(S(=O)(=O)c2c(Br)cc(CCC(=O)O)cc2Br)ccc1O` here?
Answer: 186 to 188 °C

Question: Which melting point does the source give for `CCN1Cc2ccccc2P1(=O)c1ccccc1` (stereo not given) here?
Answer: 94 to 95 °C

Question: Which melting point does the source give for `Oc1ccc(Sc2ccc(F)cc2)c2ccccc12` here?
Answer: 195 to 198 °C

Question: For `CNC(=O)c1cccc(NC(=O)C2(c3ccccc3)CCCC2)c1`, which melting point is on record?
Answer: 147 °C

Question: With `COCCN1CCc2ccc(OC)c(Nc3ncc(Cl)c(N[C@@H]4CCCC[C@H]4NS(C)(=O)=O)n3)c2CC1` as the molecule, how does the melting point read?
Answer: 93 to 100 °C

Question: With `O=C1CCC(N2Cc3c(OCc4ccc(CN(CCC(F)(F)F)CCC(F)(F)F)cc4)cccc3C2=O)C(=O)N1` (stereo not given) as the molecule, how does the melting point read?
Answer: 107 to 109 °C

Question: With `CC(C)(C)OC(=O)Nc1ccccc1NC(=O)c1nc2c(s1)CN(C(=O)OC(C)(C)C)CC2` as the molecule, how does the melting point read?
Answer: 188 °C

Question: Which melting point does the source give for `COc1ccc(Cl)cc1C(=O)NC1Cc2cc(S(=O)(=O)NC(=S)NC(C)C)c(OC)cc2OC1(C)C` (stereo not given) here?
Answer: 201 to 202 °C

Question: With `CCN(CC)c1ccc(-c2cc3ccccc3o2)cc1` as the molecule, how does the melting point read?
Answer: 117 to 119 °C

Question: For `O=C(NCCCCN1CCC(c2cccc3ccccc23)CC1)c1ccc(NC(=O)c2ccc(Cl)cc2)cc1`, which melting point is on record?
Answer: 264 °C

Question: With `CNN(Cc1ccccc1N)c1ccccc1` as the molecule, how does the melting point read?
Answer: 57 to 59 °C

Question: Which melting point does the source give for `O=C(c1cc(=O)c2cc(O)ccc2[nH]1)N1CCC(OCc2ccccc2)CC1` here?
Answer: 103 °C

Question: With `COc1cccc(C=CCN2CCc3nc(N)sc3CC2)c1OC` as the molecule, how does the melting point read?
Answer: 87 °C

Question: For `CC(C)(C)OC(=O)Nc1ccc(NC(=O)CCCCC2CCSS2)cc1` (stereo not given), which melting point is on record?
Answer: 190 to 195 °C

Question: For `CC(CO)Oc1cc(-n2nc3n(c2=O)CCCC3)c(Cl)cc1Cl` (stereo not given), which melting point is on record?
Answer: 54 to 57 °C

Question: For `COCCNc1nc(C)c(C)c(N2CCc3ccccc3C2C)n1` (stereo not given), which melting point is on record?
Answer: 64 to 67 °C

Question: With `Cc1ccc2nc(-c3ccc4oc(=O)n(C)c4c3)c(C)n2c1` as the molecule, how does the melting point read?
Answer: 247 to 249 °C

Question: Which melting point does the source give for `CCOc1ncc(S(=O)(=O)N2CCN(CC)CC2)cc1C(=O)Nc1c(C(N)=O)nn(CCOC)c1CC` here?
Answer: 156 °C

Question: Which melting point does the source give for `COc1ccc(CCNC(=O)CN(c2ccccc2)c2ccccc2)cc1OC` here?
Answer: 88 to 93 °C

Question: With `Clc1nccnc1SN=Cc1ccccc1` as the molecule, how does the melting point read?
Answer: 93 to 94 °C

Question: Which melting point does the source give for `CCc1nc2c(C)cc(C)nc2n1Cc1ccc(C2(C(=O)O)CCOCC2)s1` here?
Answer: 214 to 215 °C

Question: Which melting point does the source give for `COc1cccc(C=C2NC(=O)NC2=O)c1` here?
Answer: 229 to 231 °C

Question: Which melting point does the source give for `CCCCCC(=O)OCc1cc(O)ncn1` here?
Answer: 133 to 134 °C

Question: Which melting point does the source give for `Cc1oc(-c2ccccc2)nc1COc1ccc(COc2ncccc2C#N)cc1` here?
Answer: 119 to 120 °C

Question: Which melting point does the source give for `CC(C)(C)C(=O)SCCNC(=O)CCNC(=O)OCc1ccccc1` here?
Answer: 87 to 88 °C

Question: Which melting point does the source give for `CC(C)=CCN1CCc2c(sc(N)c2C(=O)c2ccc(I)cc2)C1` here?
Answer: 148 to 150 °C

Question: Which melting point does the source give for `CNN(NC)C(=O)Nc1cccc2c1C(=O)c1c-2n[nH]c1-c1ccc(OC)s1` here?
Answer: 280 °C

Question: With `C=CCN1C(=O)COc2cc(F)c(N)cc21` as the molecule, how does the melting point read?
Answer: 171 to 172 °C

Question: With `CCCCCCCCCCCCOC(=O)CCC(=O)c1ccc(NCc2ccc3ccc4nc(C)[nH]c(=O)c4c3c2)cc1` as the molecule, how does the melting point read?
Answer: 213 to 214 °C

Question: Which melting point does the source give for `CCOC(=O)c1ccc(-c2ccc(OC)c(-c3cccc([N+](=O)[O-])c3)c2)cc1` here?
Answer: 106 to 108 °C

Question: Which melting point does the source give for `Cn1ccc2cc(NC(=O)Nc3cccc4cccnc34)ccc21` here?
Answer: 205 to 209 °C

Question: With `C#CC(C)(C)OC(=O)N1CCNCC1` as the molecule, how does the melting point read?
Answer: 35 to 38 °C

Question: With `C[C@@H](Nc1c(NCc2ccc(F)cc2)c(=O)c1=O)C(C)(C)C` as the molecule, how does the melting point read?
Answer: 289 to 291 °C

Question: With `CCc1cccc(CC)c1NC(=O)CCSc1cc(C(C)(C)C)c(O)c(C(C)(C)C)c1` as the molecule, how does the melting point read?
Answer: 150 to 152 °C

Question: Which melting point does the source give for `O=C1CCC2(c3ccc(-c4ccc(OC(F)(F)F)cc4)cc3)OCC(c3ccccc3)N12` (stereo not given) here?
Answer: 104 °C

Question: With `Cn1cc2c(O)cc(-c3ccc(Cl)cc3)nc2n1` as the molecule, how does the melting point read?
Answer: 302 to 305 °C
